The values below come from article PMC7026418, “The kinase polypharmacology landscape of clinical PARP inhibitors” (Scientific Reports, 2020).

Each structure is given as a SMILES string. Where two headings read alike, the source gives them in different places.

Holding throughout (experiment): biochemical
Design in all cases: DiscoveRx KINOMEscan active site-directed competition binding; percent of control kinase bound to immobilised ligand

The target in experiment [1] is T1, TRKA (Homo sapiens, UniProt P04629).
T1 construct: gene NTRK1

In experiment [2] the target is T2, TYK2(JH1domain-catalytic) (Homo sapiens, UniProt P29597).
T2 construct: JH1domain-catalytic

Experiment [3] deals with FGFR3 (Homo sapiens, UniProt P22607).
Experiment [4] addresses T3, ARK5 (Homo sapiens, UniProt O60285).
T3 construct: gene NUAK1
T3 sequence (O60285 1-661): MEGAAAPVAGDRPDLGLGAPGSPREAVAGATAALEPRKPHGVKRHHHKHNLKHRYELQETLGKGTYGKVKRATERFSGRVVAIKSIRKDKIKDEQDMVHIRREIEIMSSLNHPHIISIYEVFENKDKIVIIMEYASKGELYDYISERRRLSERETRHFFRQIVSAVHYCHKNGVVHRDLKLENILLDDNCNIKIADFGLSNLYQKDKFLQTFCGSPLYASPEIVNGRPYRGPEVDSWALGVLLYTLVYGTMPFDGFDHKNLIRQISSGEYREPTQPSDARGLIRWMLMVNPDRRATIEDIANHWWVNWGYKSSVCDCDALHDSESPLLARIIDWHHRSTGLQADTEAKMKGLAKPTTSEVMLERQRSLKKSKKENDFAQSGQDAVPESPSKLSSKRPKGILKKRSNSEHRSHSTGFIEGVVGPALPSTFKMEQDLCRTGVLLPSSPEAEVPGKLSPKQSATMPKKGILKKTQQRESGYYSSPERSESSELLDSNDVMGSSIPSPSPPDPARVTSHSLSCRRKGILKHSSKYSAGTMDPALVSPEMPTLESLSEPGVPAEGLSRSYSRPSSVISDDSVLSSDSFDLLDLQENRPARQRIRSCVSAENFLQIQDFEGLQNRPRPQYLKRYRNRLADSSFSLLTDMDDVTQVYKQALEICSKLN

In experiment [5] the target is T4, RSK4(Kin.Dom.1-N-terminal) (Homo sapiens, UniProt Q9UK32).
T4 construct: gene RPS6KA6; Kin.Dom.1-N-terminal

Experiment [6] deals with CDK7 (Homo sapiens, UniProt P50613).
The target of experiment [7] is T5, MAP3K2 (Homo sapiens, UniProt Q9Y2U5).
T5 sequence (Q9Y2U5 1-619): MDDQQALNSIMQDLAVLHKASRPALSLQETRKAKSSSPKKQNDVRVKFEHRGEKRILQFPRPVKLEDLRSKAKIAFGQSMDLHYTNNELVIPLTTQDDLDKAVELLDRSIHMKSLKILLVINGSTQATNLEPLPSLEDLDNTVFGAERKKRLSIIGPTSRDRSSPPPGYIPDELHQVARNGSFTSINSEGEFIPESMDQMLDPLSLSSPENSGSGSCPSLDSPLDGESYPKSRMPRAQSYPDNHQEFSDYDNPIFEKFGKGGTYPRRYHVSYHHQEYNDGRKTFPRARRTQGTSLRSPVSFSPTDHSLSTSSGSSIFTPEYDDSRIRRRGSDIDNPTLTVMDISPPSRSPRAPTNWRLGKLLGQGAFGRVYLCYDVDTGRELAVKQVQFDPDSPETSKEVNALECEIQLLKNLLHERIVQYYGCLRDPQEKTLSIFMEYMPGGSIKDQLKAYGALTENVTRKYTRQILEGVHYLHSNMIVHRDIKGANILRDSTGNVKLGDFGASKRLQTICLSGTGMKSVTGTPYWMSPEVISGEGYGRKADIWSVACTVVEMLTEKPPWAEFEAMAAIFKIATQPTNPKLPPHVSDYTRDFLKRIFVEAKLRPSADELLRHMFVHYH

Experiment [8] addresses T6, YES (Homo sapiens, UniProt P07947).
T6 construct: gene YES1

Experiment [9] has as its target PIK3CA(E545K) (Homo sapiens, UniProt P42336, E545K).
Experiment [10] concerns the target CDK3 (Homo sapiens, UniProt Q00526).
The target of experiment [11] is PRKCD (Homo sapiens, UniProt Q05655).
[12] abbreviates: read-out: Rucaparib / %Ctrl @ 10000nM, binding competition, % of control.
Setting [13] is: read-out: Talazoparib (BMN 673) / %Ctrl @ 10000nM.
Where [14] appears, read: read-out: Niraparib (MK-4827) / %Ctrl @ 10000nM.
The mark [15] stands for this setting: read-out: Olaparib / %Ctrl @ 10000nM.

Chain of PIK3CA(E545K) (P42336 whole entry E545K): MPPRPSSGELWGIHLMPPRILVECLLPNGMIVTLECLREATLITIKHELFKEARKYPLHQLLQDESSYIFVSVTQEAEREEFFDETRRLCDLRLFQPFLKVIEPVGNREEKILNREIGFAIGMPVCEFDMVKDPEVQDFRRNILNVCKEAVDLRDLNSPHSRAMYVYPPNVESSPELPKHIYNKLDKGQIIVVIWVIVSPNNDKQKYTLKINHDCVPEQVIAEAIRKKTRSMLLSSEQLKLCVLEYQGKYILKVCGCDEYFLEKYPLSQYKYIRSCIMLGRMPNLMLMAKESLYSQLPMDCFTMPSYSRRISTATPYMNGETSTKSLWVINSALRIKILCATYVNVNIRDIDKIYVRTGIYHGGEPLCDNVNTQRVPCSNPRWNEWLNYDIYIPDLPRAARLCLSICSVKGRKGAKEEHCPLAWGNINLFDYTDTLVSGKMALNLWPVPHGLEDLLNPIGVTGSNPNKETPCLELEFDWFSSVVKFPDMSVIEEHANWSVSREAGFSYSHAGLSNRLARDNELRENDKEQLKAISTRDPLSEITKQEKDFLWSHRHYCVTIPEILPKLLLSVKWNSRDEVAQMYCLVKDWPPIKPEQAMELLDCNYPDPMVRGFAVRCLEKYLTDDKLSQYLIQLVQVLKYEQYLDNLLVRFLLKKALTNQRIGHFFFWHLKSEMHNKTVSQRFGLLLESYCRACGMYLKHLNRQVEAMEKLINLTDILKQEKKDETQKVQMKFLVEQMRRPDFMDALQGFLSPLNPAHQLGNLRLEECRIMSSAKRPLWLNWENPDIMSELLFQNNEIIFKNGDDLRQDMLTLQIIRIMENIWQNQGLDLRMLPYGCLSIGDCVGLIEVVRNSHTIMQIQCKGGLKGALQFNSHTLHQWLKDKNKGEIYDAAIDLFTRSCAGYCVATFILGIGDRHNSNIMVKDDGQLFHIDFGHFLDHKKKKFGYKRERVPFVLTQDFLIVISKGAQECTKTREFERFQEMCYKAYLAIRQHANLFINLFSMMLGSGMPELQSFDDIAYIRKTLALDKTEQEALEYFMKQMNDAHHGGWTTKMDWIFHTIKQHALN
Chain of CDK7 (P50613 whole entry): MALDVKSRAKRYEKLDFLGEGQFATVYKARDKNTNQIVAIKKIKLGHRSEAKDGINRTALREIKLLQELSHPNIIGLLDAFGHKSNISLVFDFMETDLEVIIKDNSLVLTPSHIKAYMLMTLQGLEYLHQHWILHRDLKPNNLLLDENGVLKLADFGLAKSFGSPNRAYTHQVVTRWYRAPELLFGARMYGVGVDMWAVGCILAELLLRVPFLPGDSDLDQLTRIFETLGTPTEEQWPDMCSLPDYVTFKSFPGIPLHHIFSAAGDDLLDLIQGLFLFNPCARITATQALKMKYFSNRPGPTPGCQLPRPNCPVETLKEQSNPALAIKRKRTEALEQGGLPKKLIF
T2 sequence (P29597 whole entry): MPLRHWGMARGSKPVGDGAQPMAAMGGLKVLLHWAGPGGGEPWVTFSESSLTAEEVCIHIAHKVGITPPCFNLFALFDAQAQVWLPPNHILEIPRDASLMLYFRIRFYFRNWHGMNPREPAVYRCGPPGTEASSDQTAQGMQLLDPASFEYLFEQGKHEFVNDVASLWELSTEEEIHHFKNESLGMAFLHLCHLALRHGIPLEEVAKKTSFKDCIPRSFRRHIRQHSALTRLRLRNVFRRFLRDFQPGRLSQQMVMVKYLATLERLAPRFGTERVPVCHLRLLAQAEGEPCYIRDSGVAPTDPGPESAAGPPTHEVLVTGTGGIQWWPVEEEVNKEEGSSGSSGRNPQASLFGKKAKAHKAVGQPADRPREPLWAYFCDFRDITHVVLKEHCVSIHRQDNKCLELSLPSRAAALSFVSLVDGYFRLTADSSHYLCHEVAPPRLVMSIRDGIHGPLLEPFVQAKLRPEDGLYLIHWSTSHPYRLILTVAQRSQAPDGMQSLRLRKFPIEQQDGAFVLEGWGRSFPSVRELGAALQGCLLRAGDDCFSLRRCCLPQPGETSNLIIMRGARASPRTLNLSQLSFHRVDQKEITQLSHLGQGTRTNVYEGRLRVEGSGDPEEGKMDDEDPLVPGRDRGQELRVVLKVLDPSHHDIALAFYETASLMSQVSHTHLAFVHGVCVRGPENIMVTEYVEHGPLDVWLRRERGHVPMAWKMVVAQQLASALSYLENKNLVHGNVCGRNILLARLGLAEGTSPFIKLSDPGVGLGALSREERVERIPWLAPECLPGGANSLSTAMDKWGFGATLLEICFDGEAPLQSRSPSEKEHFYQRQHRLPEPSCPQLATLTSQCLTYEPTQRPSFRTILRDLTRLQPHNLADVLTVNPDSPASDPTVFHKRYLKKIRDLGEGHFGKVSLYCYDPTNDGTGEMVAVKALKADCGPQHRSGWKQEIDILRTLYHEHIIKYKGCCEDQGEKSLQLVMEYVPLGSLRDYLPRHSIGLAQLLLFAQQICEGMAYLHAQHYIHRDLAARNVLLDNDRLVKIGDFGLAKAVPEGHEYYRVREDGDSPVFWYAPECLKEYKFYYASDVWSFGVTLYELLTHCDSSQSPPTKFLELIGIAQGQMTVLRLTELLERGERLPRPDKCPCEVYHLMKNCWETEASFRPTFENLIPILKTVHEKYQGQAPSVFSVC
Chain of FGFR3 (P22607 whole entry): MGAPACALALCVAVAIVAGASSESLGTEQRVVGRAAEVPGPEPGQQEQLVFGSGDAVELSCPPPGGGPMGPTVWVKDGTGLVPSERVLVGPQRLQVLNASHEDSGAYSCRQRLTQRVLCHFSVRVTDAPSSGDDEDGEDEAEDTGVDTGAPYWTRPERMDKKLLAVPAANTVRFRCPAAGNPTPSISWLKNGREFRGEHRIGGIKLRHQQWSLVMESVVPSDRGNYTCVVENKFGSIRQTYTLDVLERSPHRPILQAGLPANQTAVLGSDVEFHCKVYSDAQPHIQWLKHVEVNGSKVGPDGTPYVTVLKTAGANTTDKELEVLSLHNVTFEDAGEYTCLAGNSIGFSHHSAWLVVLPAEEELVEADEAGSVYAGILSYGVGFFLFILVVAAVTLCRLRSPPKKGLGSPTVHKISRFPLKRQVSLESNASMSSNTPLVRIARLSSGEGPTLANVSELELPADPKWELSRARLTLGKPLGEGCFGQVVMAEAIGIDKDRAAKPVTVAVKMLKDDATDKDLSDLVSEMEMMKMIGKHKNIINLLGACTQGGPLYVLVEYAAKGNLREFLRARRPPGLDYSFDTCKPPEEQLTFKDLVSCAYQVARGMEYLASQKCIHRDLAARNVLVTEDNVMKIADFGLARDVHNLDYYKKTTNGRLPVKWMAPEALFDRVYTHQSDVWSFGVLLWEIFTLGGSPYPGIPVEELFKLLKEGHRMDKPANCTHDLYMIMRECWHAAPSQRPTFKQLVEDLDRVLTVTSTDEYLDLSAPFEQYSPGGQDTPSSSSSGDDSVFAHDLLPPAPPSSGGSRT
T1 sequence (P04629 whole entry): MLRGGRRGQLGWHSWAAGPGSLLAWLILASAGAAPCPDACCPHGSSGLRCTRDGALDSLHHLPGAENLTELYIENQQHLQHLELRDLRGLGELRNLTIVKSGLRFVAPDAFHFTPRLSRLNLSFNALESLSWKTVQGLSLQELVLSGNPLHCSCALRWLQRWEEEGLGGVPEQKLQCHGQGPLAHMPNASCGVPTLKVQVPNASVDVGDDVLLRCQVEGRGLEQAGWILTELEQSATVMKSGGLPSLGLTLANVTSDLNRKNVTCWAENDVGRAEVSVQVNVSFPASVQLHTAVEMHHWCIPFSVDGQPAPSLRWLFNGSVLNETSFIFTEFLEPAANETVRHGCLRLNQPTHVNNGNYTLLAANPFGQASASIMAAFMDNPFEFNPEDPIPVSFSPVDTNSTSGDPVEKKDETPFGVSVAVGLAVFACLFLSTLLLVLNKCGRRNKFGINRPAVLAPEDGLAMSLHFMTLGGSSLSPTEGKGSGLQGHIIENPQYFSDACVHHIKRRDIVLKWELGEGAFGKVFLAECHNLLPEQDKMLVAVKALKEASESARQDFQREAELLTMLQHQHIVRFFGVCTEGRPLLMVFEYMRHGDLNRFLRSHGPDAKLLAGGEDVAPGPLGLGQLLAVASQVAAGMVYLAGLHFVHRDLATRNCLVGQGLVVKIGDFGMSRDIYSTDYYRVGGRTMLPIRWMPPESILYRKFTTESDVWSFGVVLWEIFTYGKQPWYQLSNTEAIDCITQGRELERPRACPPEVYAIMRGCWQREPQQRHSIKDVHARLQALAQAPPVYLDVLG
Chain of CDK3 (Q00526 whole entry): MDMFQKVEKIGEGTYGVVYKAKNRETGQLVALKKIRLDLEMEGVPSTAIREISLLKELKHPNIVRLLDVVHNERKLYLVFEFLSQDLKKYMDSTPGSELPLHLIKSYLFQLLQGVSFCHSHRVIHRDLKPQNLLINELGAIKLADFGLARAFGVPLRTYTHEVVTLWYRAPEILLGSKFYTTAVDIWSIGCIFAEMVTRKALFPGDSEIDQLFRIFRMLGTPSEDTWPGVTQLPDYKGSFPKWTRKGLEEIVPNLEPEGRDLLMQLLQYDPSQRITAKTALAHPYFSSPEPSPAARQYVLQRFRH
T6 sequence (P07947 whole entry): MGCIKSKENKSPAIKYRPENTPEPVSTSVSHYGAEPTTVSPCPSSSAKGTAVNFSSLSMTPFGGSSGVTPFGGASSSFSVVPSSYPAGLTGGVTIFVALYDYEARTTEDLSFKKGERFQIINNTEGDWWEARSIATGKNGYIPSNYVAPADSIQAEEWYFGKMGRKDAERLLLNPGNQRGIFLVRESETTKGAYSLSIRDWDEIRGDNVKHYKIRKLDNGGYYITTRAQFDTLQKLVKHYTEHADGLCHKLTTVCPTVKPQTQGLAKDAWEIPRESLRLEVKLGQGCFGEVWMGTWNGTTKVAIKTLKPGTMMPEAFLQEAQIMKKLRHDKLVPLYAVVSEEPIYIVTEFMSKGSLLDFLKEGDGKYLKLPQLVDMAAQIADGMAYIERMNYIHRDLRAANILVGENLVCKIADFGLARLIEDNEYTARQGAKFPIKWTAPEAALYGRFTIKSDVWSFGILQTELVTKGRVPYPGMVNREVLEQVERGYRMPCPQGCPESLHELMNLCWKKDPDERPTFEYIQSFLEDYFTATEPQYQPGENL

As to `CNCc1ccc(-c2[nH]c3cc(F)cc4c3c2CCNC4=O)cc1` [Rucaparib], the percent of control binding at 10 µM in [1] (setting [12]) stood at 74%; in [2] (setting [12]) it was 66%; in experiment [3] (setting [12]), 99%; in [4] (setting [12]) it was 100%; in [5] (setting [12]), 63%; in [6] (setting [12]) it was 71%. Besides, the percent of control binding at 10 µM in [7] (setting [12]) is 82%; in [8] (setting [12]) it was 99%; in [9] (setting [12]), 79%; in experiment [10] (setting [12]), 94%; in experiment [11] (setting [12]), 83%.
As for `Cn1ncnc1[C@H]1c2n[nH]c(=O)c3cc(F)cc(c23)N[C@@H]1c1ccc(F)cc1` [Talazoparib], the percent of control binding at 10 µM turned out to be 100% in [1] (setting [13]); 94% in [2] (setting [13]); 100% in experiment [3] (setting [13]); 100% in experiment [4] (setting [13]); 99% in [5] (setting [13]); 100% in experiment [6] (setting [13]). The percent of control binding at 10 µM in [7] (setting [13]) was found to be 98%; in experiment [8] (setting [13]), 92%; in experiment [9] (setting [13]), 56%; in [10] (setting [13]), 100%; in experiment [11] (setting [13]), 86%.
Take `NC(=O)c1cccc2cn(-c3ccc([C@@H]4CCCNC4)cc3)nc12` [Niraparib]: the percent of control binding at 10 µM in experiment [1] (setting [14]) is 99%; in experiment [2] (setting [14]), 96%; in [3] (setting [14]) it was 94%; in experiment [4] (setting [14]) it was 56%; in experiment [5] (setting [14]) it was 100%; in experiment [6] (setting [14]) it was 73%. Further, the percent of control binding at 10 µM worked out at 97% in [7] (setting [14]); 83% in experiment [8] (setting [14]); 95% in experiment [9] (setting [14]); 95% in [10] (setting [14]); 93% in experiment [11] (setting [14]).
For `O=C(c1cc(Cc2n[nH]c(=O)c3ccccc23)ccc1F)N1CCN(C(=O)C2CC2)CC1` [Olaparib], the percent of control binding at 10 µM in experiment [1] (setting [15]) is 91%; in experiment [2] (setting [15]), 84%; in experiment [3] (setting [15]), 100%; in [4] (setting [15]), 99%; in experiment [5] (setting [15]) it was 76%; in experiment [6] (setting [15]), 89%. Moreover, the percent of control binding at 10 µM in experiment [7] (setting [15]) came out at 92%; in experiment [8] (setting [15]), 93%; in experiment [9] (setting [15]), 86%; in [10] (setting [15]), 100%; in experiment [11] (setting [15]), 95%.
